Tests used:
NA transporter = target: T1, NA transporter (Rattus norvegicus, UniProt Q63380); experiment: Noradrenalin uptake inhibition in rat brain synaptosomes (hypothalamus); format: biochemical
T1 construct: from tissue; host or cells: rat hypothalamus synaptosomes (P2 fraction)
Description: (§1) I. Method for Determining Noradrenalin and 5-HT Uptake Inhibition:
(§2) Synaptosomes from rat brain regions are freshly isolated for in vitro studies, as described in the publication “The isolation of nerve endings from brain” by E. G. Gray and V. P. Whittaker, J. Anatomy 96, pages 79-88, 1962. The corresponding literature description is hereby introduced as a reference and is deemed to be part of the disclosure.
(§3) The tissue (hypothalamus for the determination of noradrenalin uptake inhibition and medulla and pons for the determination of 5-HT uptake inhibition) is homogenised in ice-cooled 0.32 M sucrose (100 mg of tissue/1 mL) in a glass homogeniser with Teflon pestle using five complete up and down strokes at 840 revolutions/minute.
(§4) The homogenate is centrifuged at 4° C. for 10 minutes at 1000 g. After subsequent centrifugation at 17000 g for 55 minutes, the synaptosomes (P2 fraction) are obtained, which are resuspended in 0.32 M […] (0.5 mL/100 mg of original weight).
(§5) The particular uptake is measured in a 96-well microtitre plate. The volume is 250 μl and the incubation proceeds at room temperature (approx. 20-25° C.) under an O2 atmosphere.
(§6) The incubation time is 7.5 minutes for [^3H]-NA and 5 minutes for [^3H]-5-HT.
(§7) The 96 samples are then filtered through a Unifilter GF/B microtitre plate (Packard) and washed with 200 mL of incubated buffer using a “Brabdel MPXRI-96T Cell-Harvester”. The Unifilter GF/B plate is dried for 1 hour at 55° C. The plate is then sealed with a Back seal (Packard) and 35 μl of scintillation fluid are added per well (Ultima Gold, Packard). After sealing with a top seal (Packard) and establishing an equilibrium (around 5 hours), radioactivity is determined in a “Trilux 1450 Microbeta” (Wallac).
(§8) The quantity of protein used in the above determination corresponds to the values known from the literature, as for example described in “Protein measurement with the folin phenol reagent”, Lowry et al., J. Biol. Chem., 193, 265-275, 1951.
(§9) A detailed description of the method may additionally be found in the literature, for example in M. Ch. Frink, H.-H. Hennies, W. Engelberger, M. Haurand and B. Wilffert (1996) Arzneim.-Forsch./Drug Res. 46 (III), 11, 1029-1036.
(§10) The corresponding literature descriptions are hereby introduced in each case as a reference and are deemed to be part of the present disclosure.
(§11) The following characteristics were determined for the NA or 5-HT transporter: […]

5-HT transporter = target: T2, 5-HT transporter (Rattus norvegicus, UniProt P31652); experiment: 5-HT uptake inhibition in rat brain synaptosomes (medulla and pons); format: biochemical
T2 construct: from tissue; host or cells: rat medulla and pons synaptosomes (P2 fraction)
Description: as §1, §2, §3, §4, §5, §6, §7, §8, §9, §10, §11

T1 sequence (Q63380 1-617): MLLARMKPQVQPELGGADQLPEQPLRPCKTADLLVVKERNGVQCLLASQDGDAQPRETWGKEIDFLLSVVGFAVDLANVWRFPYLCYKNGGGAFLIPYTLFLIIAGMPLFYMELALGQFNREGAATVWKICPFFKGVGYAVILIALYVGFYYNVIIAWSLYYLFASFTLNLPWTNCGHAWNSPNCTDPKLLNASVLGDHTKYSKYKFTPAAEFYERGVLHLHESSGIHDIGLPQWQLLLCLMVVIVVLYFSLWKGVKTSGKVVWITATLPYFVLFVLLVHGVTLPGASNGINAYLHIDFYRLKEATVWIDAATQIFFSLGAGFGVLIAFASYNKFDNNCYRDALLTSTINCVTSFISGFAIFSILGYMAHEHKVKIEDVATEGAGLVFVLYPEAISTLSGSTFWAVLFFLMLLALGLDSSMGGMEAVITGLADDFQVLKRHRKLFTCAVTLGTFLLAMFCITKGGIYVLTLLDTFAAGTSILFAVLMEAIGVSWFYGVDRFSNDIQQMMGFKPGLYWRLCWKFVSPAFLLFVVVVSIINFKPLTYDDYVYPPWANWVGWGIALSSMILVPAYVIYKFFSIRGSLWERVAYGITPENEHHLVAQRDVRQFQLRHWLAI
T2 sequence (P31652 whole entry): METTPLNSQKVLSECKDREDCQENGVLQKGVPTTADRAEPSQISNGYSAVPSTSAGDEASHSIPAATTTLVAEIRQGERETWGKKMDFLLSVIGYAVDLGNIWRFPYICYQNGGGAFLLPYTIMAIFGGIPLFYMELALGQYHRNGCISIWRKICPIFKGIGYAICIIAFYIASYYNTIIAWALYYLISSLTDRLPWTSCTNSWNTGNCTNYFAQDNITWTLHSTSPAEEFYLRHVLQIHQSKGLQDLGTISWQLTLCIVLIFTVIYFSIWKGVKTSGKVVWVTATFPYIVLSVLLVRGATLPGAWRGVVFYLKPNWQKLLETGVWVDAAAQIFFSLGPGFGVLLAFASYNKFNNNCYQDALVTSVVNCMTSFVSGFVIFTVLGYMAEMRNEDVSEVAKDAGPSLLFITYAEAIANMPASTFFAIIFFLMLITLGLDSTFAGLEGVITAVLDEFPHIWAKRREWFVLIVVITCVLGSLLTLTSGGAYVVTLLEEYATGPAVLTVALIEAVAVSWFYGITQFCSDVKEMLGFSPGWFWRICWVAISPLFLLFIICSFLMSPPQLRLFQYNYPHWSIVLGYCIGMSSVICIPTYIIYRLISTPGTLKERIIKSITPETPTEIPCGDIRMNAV

For COc1ccc(S(=O)(=O)N2CCc3nc(NC(=O)c4ccc(F)cc4)ncc3C2)cc1 [Example 185, 4-fluoro-N-[6-(4-methoxy-benzenesulfonyl)-5,6,7,8-tetrahydro-pyrido[4,3-d]pyrimidin-2-yl]-benzamide], which inhibition at 10 µM (NA transporter) is on record?
Its inhibition at 10 µM is 36%.

O=C(Nc1ncc2c(n1)CCC(NS(=O)(=O)Cc1ccccc1)C2)c1cccs1 (centres unmarked) [Example 165, thiophene-2-carboxylic acid (6-phenylmethanesulfonylamino-5,6,7,8-tetrahydro-quinazolin-2-yl)-amide] was tested. Which inhibition at 1 µM (5-HT transporter) did it give?
Its inhibition at 1 µM is 35%.

With O=C(Nc1ncc2c(n1)CCN(C(=O)c1sc3ccccc3c1Cl)C2)c1ccccc1 [Example 120, N-[6-(3-chloro-benzo[b]thiophene-2-carbonyl)-5,6,7,8-tetrahydro-pyrido[4,3-d]pyrimidin-2-yl]-benzamide] as the compound, how does the inhibition at 1 µM (5-HT transporter) read?
Its inhibition at 1 µM is 92%.

And the inhibition at 10 µM (NA transporter)?
Its inhibition at 10 µM is 78%.

For CCN(CC)C(=O)CCC(=O)N1CCc2nc(NC(=O)c3cc(Cl)cc(Cl)c3)ncc2C1 [Example 171, 3,5-dichloro-N-[6-(3-diethylcarbamoyl-propionyl)-5,6,7,8-tetrahydro-pyrido[4,3-d]pyrimidin-2-yl]-benzamide], which inhibition at 1 µM (5-HT transporter) is on record?
The inhibition at 1 µM was 32%.

CC(C)(C)c1ccc(C(=O)Nc2ncc3c(n2)CCN(S(=O)(=O)c2ccc4c(c2)OCCO4)C3)cc1 [Example 186, 4-tert-butyl-N-[6-(2,3-dihydro-benzo[1,4]dioxin-6-sulfonyl)-5,6,7,8-tetrahydro-pyrido[4,3-d]pyrimidin-2-yl]-benzamide] was tested. Which inhibition at 1 µM (5-HT transporter) did it give?
The inhibition at 1 µM was 46%.

And the inhibition at 10 µM (NA transporter)?
Its inhibition at 10 µM is 82%.

Which inhibition at 10 µM (NA transporter) does the source give for COc1cccc(C(=O)Nc2ncc3c(n2)CCN(C(=O)c2cccc(F)c2F)C3)c1 [Example 80, N-[6-(2,3-difluoro-benzoyl)-5,6,7,8-tetrahydro-pyrido[4,3-d]pyrimidin-2-yl]-3-methoxy-benzamide] here?
Its inhibition at 10 µM is 54%.

How did the inhibition at 1 µM (5-HT transporter) turn out when CC(C)(C)c1ccc(C(=O)Nc2ncc3c(n2)CCN(C(=O)c2csc4ccccc24)C3)cc1 [Example 184, N-[6-(benzo[b]thiophene-3-carbonyl)-5,6,7,8-tetrahydro-pyrido[4,3-d]pyrimidin-2-yl]-4-tert-butyl-benzamide] was run?
The inhibition at 1 µM was 48%.

And the inhibition at 10 µM (NA transporter)?
Its inhibition at 10 µM is 69%.

O=C(Nc1ncc2c(n1)CCN(C(=O)c1c(F)cccc1Cl)C2)c1cccc(Cl)c1 [Example 127, 3-chloro-N-[6-(2-chloro-6-fluoro-benzoyl)-5,6,7,8-tetrahydro-pyrido[4,3-d]pyrimidin-2-yl]-benzamide] was tested. Which inhibition at 1 µM (5-HT transporter) did it give?
Its inhibition at 1 µM is 35%.

And the inhibition at 10 µM (NA transporter)?
Its inhibition at 10 µM is 71%.

Which results are given for Cc1ccc(C(=O)N2CCc3nc(NC(=O)c4ccc(C(C)(C)C)cc4)ncc3C2)cc1[N+](=O)[O-] [Example 92, 4-tert-butyl-N-[6-(4-methyl-3-nitro-benzoyl)-5,6,7,8-tetrahydro-pyrido[4,3-d]pyrimidin-2-yl]-benzamide]?
inhibition at 1 µM (5-HT transporter): 66%; inhibition at 10 µM (NA transporter): 35%

Which inhibition at 10 µM (NA transporter) does the source give for O=C(Nc1ncc2c(n1)CCN(S(=O)(=O)c1cccs1)C2)c1ccc(F)c(F)c1 [Example 72, 3,4-difluoro-N-[6-(thiophene-2-sulfonyl)-5,6,7,8-tetrahydro-pyrido[4,3-d]pyrimidin-2-yl]-benzamide] here?
Its inhibition at 10 µM is 41%.

What does the source list for O=C(Nc1ncc2c(n1)CCN(C(=O)CCCCc1ccccc1)C2)c1ccccc1 [Example 190, N-[6-(5-phenyl-pentanoyl)-5,6,7,8-tetrahydro-pyrido[4,3-d]pyrimidin-2-yl]-benzamide]?
inhibition at 1 µM (5-HT transporter): 36%; inhibition at 10 µM (NA transporter): 73%

Which inhibition at 1 µM (5-HT transporter) does the source give for CCc1ccc(C(=O)Nc2ncc3c(n2)CCN(S(=O)(=O)c2ccccc2Cl)C3)cc1 [Example 114, N-[6-(2-chloro-benzenesulfonyl)-5,6,7,8-tetrahydro-pyrido[4,3-d]pyrimidin-2-yl]-4-ethyl-benzamide] here?
The inhibition at 1 µM was 50%.

And the inhibition at 10 µM (NA transporter)?
The inhibition at 10 µM was 73%.

Which inhibition at 1 µM (5-HT transporter) does the source give for Cc1ccc([N+](=O)[O-])cc1S(=O)(=O)N1CCc2nc(NC(=O)c3ccccc3F)ncc2C1 [Example 150, 2-fluoro-N-[6-(2-methyl-5-nitro-benzenesulfonyl)-5,6,7,8-tetrahydro-pyrido[4,3-d]pyrimidin-2-yl]-benzamide] here?
The inhibition at 1 µM was 54%.

Which inhibition at 1 µM (5-HT transporter) does the source give for CC(C)(C)OC(=O)NCCC(=O)NC1CCc2nc(NC(=O)c3cccs3)ncc2C1 (centres unmarked) [Example 149, (2-{2-[(thiophene-2-carbonyl)-amino]-5,6,7,8-tetrahydro-quinazolin-6-ylcarbamoyl}-ethyl)-carbamic acid tert-butyl ester] here?
Its inhibition at 1 µM is 32%.

How did the inhibition at 10 µM (NA transporter) turn out when COc1ccccc1C(=O)Nc1ncc2c(n1)CCN(S(=O)(=O)c1ccc(Cl)s1)C2 [Example 86, N-[6-(5-chloro-thiophene-2-sulfonyl)-5,6,7,8-tetrahydro-pyrido[4,3-d]pyrimidin-2-yl]-2-methoxy-benzamide] was run?
Its inhibition at 10 µM is 32%.

O=C(Nc1ncc2c(n1)CCN(C(=O)c1cc(F)cc3c1OCOC3)C2)c1ccccc1C(F)(F)F [Example 103, N-[6-(6-fluoro-4H-benzo[1,3]dioxin-8-carbonyl)-5,6,7,8-tetrahydro-pyrido[4,3-d]pyrimidin-2-yl]-2-trifluoromethyl-benzamide] was tested. Which inhibition at 1 µM (5-HT transporter) did it give?
Its inhibition at 1 µM is 65%.

With Cc1ccc(C(=O)Nc2ncc3c(n2)CCN(C(=O)c2ccc(SC(F)(F)F)cc2)C3)cc1 [Example 148, 4-methyl-N-[6-(4-trifluoromethylsulfanyl-benzoyl)-5,6,7,8-tetrahydro-pyrido[4,3-d]pyrimidin-2-yl]-benzamide] as the compound, how does the inhibition at 1 µM (5-HT transporter) read?
Its inhibition at 1 µM is 32%.

Which inhibition at 10 µM (NA transporter) does the source give for CC(C(=O)N1CCc2nc(NC(=O)c3ccccc3)ncc2C1)c1ccc(Cl)cc1 (centres unmarked) [Example 176, N-{6-[2-(4-chloro-phenyl)-propionyl]-5,6,7,8-tetrahydro-pyrido[4,3-d]pyrimidin-2-yl}-benzamide] here?
The inhibition at 10 µM was 38%.

How did the inhibition at 10 µM (NA transporter) turn out when O=C(Nc1ncc2c(n1)CCN(C(=O)c1cccc(F)c1)C2)c1cccc2ccccc12 [Example 183, naphthalene-1-carboxylic acid [6-(3-fluoro-benzoyl)-5,6,7,8-tetrahydro-pyrido[4,3-d]pyrimidin-2-yl]-amide] was run?
The inhibition at 10 µM was 63%.

How did the inhibition at 10 µM (NA transporter) turn out when CCOC(=O)CC(=O)N1CCc2nc(NC(=O)c3cccc(Cl)c3)ncc2C1 [Example 124, 3-[2-(3-chloro-benzoylamino)-7,8-dihydro-5H-pyrido[4,3-d]pyrimidin-6-yl]-3-oxo-propionic acid ethyl ester] was run?
The inhibition at 10 µM was 65%.

For CCCC(=O)Nc1ncc2c(n1)CCC(NS(=O)(=O)c1ccc(C(C)(C)CC)cc1)C2 (centres unmarked) [Example 167, N-{6-[4-(1,1-dimethyl-propyl)-benzenesulfonylamino]-5,6,7,8-tetrahydro-quinazolin-2-yl}-butyramide], which inhibition at 1 µM (5-HT transporter) is on record?
The inhibition at 1 µM was 32%.

How did the inhibition at 1 µM (5-HT transporter) turn out when O=C(NC1CCc2nc(NC(=O)c3cccs3)ncc2C1)c1cc(F)cc(F)c1 (centres unmarked) [Example 97, thiophene-2-carboxylic acid [6-(3,5-difluoro-benzoylamino)-5,6,7,8-tetrahydro-quinazolin-2-yl]-amide] was run?
The inhibition at 1 µM was 30%.

COc1ccccc1C(=O)Nc1ncc2c(n1)CCN(C(=O)COCc1ccccc1)C2 [Example 195, N-[6-(2-benzyloxy-acetyl)-5,6,7,8-tetrahydro-pyrido[4,3-d]pyrimidin-2-yl]-2-methoxy-benzamide] was tested. Which inhibition at 10 µM (NA transporter) did it give?
The inhibition at 10 µM was 31%.

Which inhibition at 1 µM (5-HT transporter) does the source give for CCc1ccc(C(=O)Nc2ncc3c(n2)CCN(C(=O)c2ccc4ncccc4c2)C3)cc1 [Example 173, 4-ethyl-N-[6-(quinoline-6-carbonyl)-5,6,7,8-tetrahydro-pyrido[4,3-d]pyrimidin-2-yl]-benzamide] here?
The inhibition at 1 µM was 69%.

For CC1(C)C2CCC1(CS(=O)(=O)N1CCc3nc(NC(=O)c4cccc(F)c4)ncc3C1)C(=O)C2 (centres unmarked) [Example 102, N-[6-(7,7-dimethyl-2-oxo-bicyclo[2.2.1]hept-1-ylmethanesulfonyl)-5,6,7,8-tetrahydro-pyrido[4,3-d]pyrimidin-2-yl]-3-fluoro-benzamide], which inhibition at 1 µM (5-HT transporter) is on record?
The inhibition at 1 µM was 63%.

How did the inhibition at 10 µM (NA transporter) turn out when COc1cccc(C(=O)Nc2ncc3c(n2)CCN(C(=O)c2cccc(OC(F)(F)F)c2)C3)c1 [Example 199, 3-methoxy-N-[6-(3-trifluoromethoxy-benzoyl)-5,6,7,8-tetrahydro-pyrido[4,3-d]pyrimidin-2-yl]-benzamide] was run?
The inhibition at 10 µM was 52%.

Which inhibition at 1 µM (5-HT transporter) does the source give for CCCC(=O)Nc1ncc2c(n1)CCC(NS(=O)(=O)CC13CCC(CC1=O)C3(C)C)C2 (centres unmarked) [Example 162, N-[6-(7,7-dimethyl-2-oxo-bicyclo[2.2.1]hept-1-ylmethanesulfonylamino)-5,6,7,8-tetrahydro-quinazolin-2-yl]-butyramide] here?
Its inhibition at 1 µM is 29%.

CCCS(=O)(=O)NC1CCc2nc(NC(=O)c3ccc(F)cc3)ncc2C1 (centres unmarked) [Example 160, 4-fluoro-N-[6-(propane-1-sulfonylamino)-5,6,7,8-tetrahydro-quinazolin-2-yl]-benzamide] was tested. Which inhibition at 1 µM (5-HT transporter) did it give?
The inhibition at 1 µM was 40%.

— patent US20090176811A1, “Substituted 5,6,7,8-Tetrahydro-pyrido[4,3-d]pyrimidine-2-yl Compounds and 5,6,7,8-Tetrahydro-quinazoline-2-yl Compounds” (GRUENENTHAL GmbH, priority 2004, published 2009)
